Measurements reported in PMC4523931, “Modulation of Aβ42 in vivo by γ-secretase modulator in primates and humans” (Alzheimer's Research & Therapy, 2015).
Each block holds one compound with its values, some of them ahead of it.

Tests used:
[1] = design: method as in PMID 17650315, PMID 20009055; details: late-phase human clinical trial; cited from earlier work
γ-secretase [2] = assay: GSM activity in vitro: Aβ42 and total Aβ ELISA of conditioned media of CHO cells expressing APP-WT or APP-V717F; type: cell-based, Chinese hamster; details: for ED50 (in vitro GSM activity): Fig. 1
Excerpt: Conditioned media were collected and Aβ42 and total Aβ levels were quantified by ELISA analyses. […] All experiments were repeated at least twice. Results are presented as mean ± range. GSM gamma-secretase modulator

clinical = details: human
[3] = Plasma drug concentration in mice treated with ibuprofen for 3 days (literature); type: in vivo; details: Tg2576 (APP transgenic line), mouse, 50 mg/kg daily for 3 days, from 43 μM and ~5.5 % unbound, read-out: estimated unbound concentration in plasma
[4] = monkey, 100 mg/kg oral, first sampled time point, all but one animal
[5] = design: method as in PMID 12897211; details: mice, 50 mg/kg daily for 3 days, 2 h after the last dose; cited from earlier work
γ-secretase [6] = system: γ-secretase; design: method as in PMID 11700559, PMID 12897211; details: Tg2576 mice, 50 mg/kg for 3 days; cited from earlier work
[7] = mild to moderate AD, 400 mg twice daily, 1 year; cited from earlier work
in vivo = details: female, cynomolgus monkey, po, 100 mg/kg
[8] = Adverse events in the human study; details: healthy humans, 800 mg IV single dose or placebo
γ-secretase [9] = biological target: T1, γ-secretase (Macaca fascicularis, UniProt Q8HXW5); assay: Aβ levels in CSF and plasma of conscious cynomolgus monkeys after a single dose; type: in vivo, cynomolgus monkeys (Macaca fascicularis)
T1 construct: γ-secretase complex can be modulated in primates; from tissue; host or cells: living cynomolgus monkeys; Aβ read out in CSF and plasma
Procedure: The effects of drugs on CSF and plasma Aβ ratios in monkeys and plasma Aβ ratios in humans were analyzed by a two-way analysis of variance with a post hoc Bonferroni posttest (GraphPad Prism, La Jolla, CA, USA).
Aβ42, Aβ38 and total Aβ levels in CSF samples were measured. During the observation period, there was variation in Aβ levels in untreated animals (Fig. 2a–c) without a clear diurnal pattern, consistent with the reports from catheter studies in humans. Animals were then treated with drugs in subsequent weeks sequentially. Between each treatment, all animals were rested for 1 week to allow drug washout. […] In light of the CSF results, the effects of GSM-1 were mirrored in plasma. […] This was evident as early as 2 h following drug administration and plateaued starting at 4 h. GSM-1 reduced the ratio of Aβ42/Aβ40 up to 40 % at 6 h after dosing.
Cerebrospinal fluid (CSF) and plasma samples were collected at indicated time points and amyloid beta-peptide (Aβ) levels were measured. Levels of total Aβ (a), Aβ42 (b) and Aβ38 (c) were compared in CSF samples. […] The levels and ratios were normalized to baseline (time 0 or before drug dosing) and shown as percentages of baseline. Seven monkeys were used in the no-treatment group. […] Results are presented as mean ± SEM; *p < 0.05, **p < 0.001. GSM gamma-secretase modulator

γ-secretase [10] = biological target: T1, γ-secretase; assay: as above; type: in vivo, cynomolgus monkeys (Macaca fascicularis); details: monkey CSF, 30 mg/kg oral
γ-secretase [11] = system: γ-secretase; design: method as in PMID 17962197; details: APP transgenic mice, cited from earlier work

SMILES: C[C@@H](C(=O)O)c1ccc(-c2ccccc2)c(F)c1 [tarenflurbil]
- clinical efficacy [1]: not to be effective

- AUC(0-t) (clinical; both, in vivo, iv, 800 mg): 831 ± 156 µM·h
- time of return of plasma levels to baseline (clinical; 800 mg IV): ≤ 8 h
- time of highest plasma levels (clinical; 800 mg IV, first time sampled): 1 h
- concentration at 3 days [3]: ~2370 nM
- time of highest concentrations in plasma and CSF [4]: 2 h
- AUC(0-t) (in vivo; CSF): 36.4 ± 11.8 µM·h
- AUC(0-t) (in vivo; plasma): 3740 ± 924 µM·h
SMILES: CC(C)Cc1ccc(C(C)C(=O)O)cc1 (centres unmarked) [ibuprofen]
- ED50 (in vitro GSM activity) (γ-secretase [2]): 250 to 500 µM
- average plasma drug concentration [5]: 43 µM
- effect on Aβ40 levels (reduced or not) (γ-secretase [6]): not
- effect on Aβ42 levels (γ-secretase [6]): significantly reduced
- clinical benefit [7]: no benefit
- adverse events during the study period [8]: no adverse events were observed

- time of maximum reduction in CSF (γ-secretase [9]; monkey CSF, 30 mg/kg oral): 8 to 12 h
- effect on CSF total Aβ levels (γ-secretase [9]; monkey CSF, 30 mg/kg oral single dose): did not change
- maximal increase in CSF Aβ38 levels (γ-secretase [9]; monkey CSF, 30 mg/kg oral single dose, 8 h postdosing): ~ 90%
- maximal reduction in CSF Aβ42 levels (γ-secretase [9]; monkey CSF, 30 mg/kg oral single dose, 12 h postdosing): ~ 32%
- maximal increase of the ratio of Aβ38 to total Aβ in CSF (γ-secretase [9]; monkey CSF, 30 mg/kg oral, after 8 h, p < 0.05): 70%
- ratio of Aβ42 to total Aβ in CSF, relative to baseline (γ-secretase [9]; monkey CSF, single dose 30 mg/kg, baseline to postdosing): 65%
- reduction of the ratio of Aβ42/Aβ40 in plasma (γ-secretase [9]; monkey plasma, 30 mg/kg oral, 6 h after dosing): up to 40%
- time at which the decrease of plasma Aβ42/Aβ40 ratio was first evident (γ-secretase [9]; monkey plasma, 30 mg/kg oral, plateaued starting at 4 h): 2 h
- ratio of Aβ42 to Aβ40 in plasma, relative to baseline (γ-secretase [9]; monkey plasma, single dose 30 mg/kg, baseline to postdosing): 60%
- effect on ratio of Aβ42/Aβ40 in plasma (γ-secretase [9]; monkey plasma, single dose, Fig. 2f): markedly decreased
- CSF Aβ38 level (mean ± SD) (γ-secretase [10]; 8 h postdosing, baseline 1033.3 ± 300.0): 1954.8 ± 698.6 pg/mL
- CSF Aβ42 level (mean ± SD) (γ-secretase [10]; 12 h postdosing, baseline 267.1 ± 60.0): 183.5 ± 96.1 pg/mL
SMILES: CC(C)CC[C@H](c1ccc(Cl)cc1)N1CC[C@@H](CC(=O)O)C[C@H]1c1ccc(C(F)(F)F)cc1 [GSM-1]
- effect on ratio of Aβ42 to total Aβ (γ-secretase [2]; CHO APP-WT or APP-V717F, 24 h, dose-dependent, p < 0.001): significantly reduced
- concentration giving 50 % reduction of the ratio of Aβ42 to total Aβ (γ-secretase [2]; CHO cells expressing APP-WT or APP-V717F, 24 h incubation, ELISA): 0.2 µM
- ED50 (in vitro GSM activity) (γ-secretase [2]): approximately 200 nM
- lowering of brain Aβ42 (γ-secretase [11]; single dose 3 mg/kg): 25%
- reduction of brain Aβ42 (γ-secretase [11]; single dose 30 mg/kg): 70%
- effect on Aβ38 levels (γ-secretase [11]; single dose): concomitantly increased
